Data taken from US9913862B2, “Methods of treating gram-negative microbial infections” (TRUSTEES OF BOSTON UNIVERSITY, priority 2011, dated 2018).
Where two headings read alike, the source gives them in different places.

Columns and labels:
[1] = tested on: human cell lines (primary keratinocytes, primary hepatocytes and neurons)
Fur reporter strain = settings: one hour of treatment; 15 and 30 μM AgNO3
Method: (§1) Iron misregulation superoxide production and disulfide bond formation measurements: Iron regulation and superoxide production were measured using previously constructed genetic reporter strains. A disulfide bond formation sensor was constructed based on activation of the OxyR protein, which forms a disulfide bond in the presence of H2O2. The disulfide bond formation sensor was constructed by PCR-amplifying the native dps promoter and cloning it into the BamHI and XhoI restriction sites of the pZE21 vector [33]. The forward primer for PCR was […] (SEQ ID NO: 1), and the reverse primer was […] (SEQ ID NO: 2). The data were collected using a Becton Dickinson FACSCalibur flow cytometer with a 488-nm argon laser and a 515-545 nm emission filter (FL1) at high flow rate. Calibrite beads (Becton Dickinson) were used for instrument calibration. FlowJo was used to process flow cytometric data.

soxS reporter strain = settings: 1 h, 30 μM AgNO3
Method: as §1

E. coli [2] = tested on: E. coli
Method: Transmission electron microscopy: Samples analyzed with transmission electron microscopy were prepared using the following procedure: 100 μL samples were taken, centrifuged and resuspended in 1×PBS twice. To fix the bacterial cells, the samples were centrifuged and resuspended in 1 mL of 2.5% glutaraldehyde solution in PBS for 30 min. The cells were then dehydrated by exposing them for 10 min to a series of ethanol concentration solutions (50, 60, 80, 90 and 100% ethanol/PBS solutions). The cells were finally embedded into Spurr resin and left to polymerize in an oven at 60° C. for 24 h. The polymerized samples were sectioned into slices of thickness of ˜60 nm using a microtome. The sliced samples were analyzed in a Jeol 1200EX-80 kV.

E. coli [3] = settings: ΔdsbA knockout; 1 h; 30 μM AgNO3
E. coli [4] = type: cell-based; settings: for bactericidal activity when sublethal Ag+ is added to the antibiotic: sublethal antibiotic (0.25 μg/mL gentamicin, 0.03 μg/mL ofloxacin, 1 μg/mL ampicillin) plus 15 μM AgNO3
Method: Antibiotics and chemicals: All experiments presented herein were performed in Luria Bertani (LB) medium (Fisher Scientific). […] Additional chemicals that were used in the Examples include: phosphate buffer saline (PBS) (Sigma), Tris/HCl buffer pH 7.5 (Sigma), ferene-S(Fisher Scientific), 3′-p-hydroxyphenyl fluorescein dye (Invitrogen), propidium iodide (Invitrogen), and thiourea (Fluka).
Media and growth conditions: The growth and survival of untreated exponential-phase E. coli strains were compared with the antibiotic-treated strains. Briefly, cultures from frozen stock were grown overnight. The overnight culture was diluted 1:250 with 25 mL of LB medium in 250 mL flasks and incubated at 37° C., 300 rpm, and 80% humidity. Cells were then grown until an OD600 nm of 0.3. For antibiotic treatments, 500 μL samples were taken from the flasks and transferred to a 24-well plate incubated at 37° C., 900 rpms, and 80% humidity. For the hydroxyl radical (OH•) quenching experiments, thiourea (150 mM) was added simultaneously with the silver salt (e.g., AgNO3). Measurements of OD600 nm were taken using a SpectraFluor Plus (Tecan). For measuring the colony forming unit (cfu) per milliliter (mL), 100 μL of culture was collected and then serially diluted in PBS (pH 7.2). A 5 μL portion of each dilution was plated in LB-agar plates and incubated overnight at 37° C. The colonies were counted and cfu/mL was calculated using the following formula: ((number of colonies)*(dilution factor))/(amount plated).
Strains: All E. Coli experiments were performed with MG1655 (ATCC 700926)-derived strains. The knockouts were constructed using P1 phage transduction and derived from the Keio single-gene knockout collection. Removal of the kanamycin resistance cassette was accomplished using the pcp20 plasmid and confirmed by PCR prior to experimentation.

E. Coli [5] = assay: Mouse peritonitis model, E. coli counts in peritoneal cavity; type: in vivo, mice; settings: after 24 hours; single agent i.p.; 30 mg vancomycin/kg or 6 mg AgNO3/kg
Method: (§2) Minimum lethal dose (MLD) of E. coli for peritonitis mouse model: For all animal experiments, 6-week-old C57BL6 male mice (body weight, ˜20 g) were used. Serial dilutions of E. Coli ranging from 1×10^6-1×10^9 cfu/mouse were introduced into the peritoneal cavity of the mice in 500 μL aliquots of sterile saline supplemented with 8% mucine. […] The MLD was determined to be 5×10^6 cfu/mouse by measuring the lowest concentration of E. Coli that killed 100% of the recipient mice.
Mouse Peritonitis Model: Inbred, wildtype male C57BL/6 mice (6 weeks; ˜20 g) were used. After one week of quarantine, inoculation was performed by intraperitoneal (i.p.) injection of 500 μL of the MLD E. Coli inoculum using a 26-gauge syringe. The inoculum was delivered in suspension with 8% (w/v) mucine in sterile saline. 1 h after introduction of the inoculum, the untreated control group (t=0) was euthanized. Subsequently, antibacterial therapy was initiated by intraperitoneal injection. Ten mice per group received antibacterial treatments. At time 0 (control only), 8, 16 and 24 h, mice were euthanized. Peritoneal washes were performed by injecting 1.0 mL of sterile saline in the intraperitoneal followed by a massage of the abdomen. Subsequently, the abdomen was opened and 200 μL of peritoneal fluid (PF) was recovered from the peritoneum for analysis of E. Coli cfu/mL.

E. Coli [6] = assay: Mouse peritonitis model, survival assay; type: in vivo, mice; settings: after 5 days; i.p.; 30 mg vancomycin/kg, 6 mg AgNO3/kg (35 μM)
Method: as §2
Survival Assays: Male C57BL6 6-week old mice (weighing ˜20 g) received intraperitoneal injections of the MLD of E. Coli in a volume of 500 μL with 8% mucine. After 1 h, ten mice per group received either vehicle (PBS) only or infusions of the antibacterial treatments.

[7] = tested on: Fe—S clusters in E. Coli cell lysate; settings: 30 μM AgNO3 for 1 hr
Method: Iron detection Ferene S colorimetric assay: The release of protein-bound iron in an E. Coli cell lysate was measured using a Ferene-S assay. The lysate was prepared by first growing 150 mL of cells to an OD600 nm of 0.7. The cells were then lysed by sonication in 20 mM Tris/HCl pH 7.2 buffer. The samples were centrifuged and the supernatants containing the cell lysates were collected. Lysates were treated either with heat (90° C. for 20 min) or with 30 μM AgNO3 (for 1 hr). 10 mM Ferene-S was added to each sample and samples were then incubated at room temperature for 1 h. Absorbance at 593 nm was then measured.

mice = settings: concentrations up to 12 mg AgNO3/kg (70 μM)
dps reporter strain = dps reporter strain (OxyR disulfide bond formation sensor); type: cell-based, E. coli; settings: 1 h
From the text: The forward primer for PCR was […] […] (SEQ ID NO: 2). […] Calibrite beads (Becton Dickinson) were used for instrument calibration. FlowJo was used to process flow cytometric data.

E. coli [8] = type: cell-based; settings: for ROS production when sublethal Ag+ is added to the antibiotic: sublethal antibiotic plus 15 μM AgNO3
From the text: FlowJo was used to process flow cytometric data.

With O=[N+]([O-])[O-].[Ag+] [Ag^+, silver nitrate] the “toxicity in human cell lines” value [1] was “no significant toxicity”, the “Fur reporter GFP fluorescence relative to untreated cells” value (Fur reporter strain) was “significantly increased fluorescence” and the “response of soxS reporter strain (superoxide production)” value (soxS reporter strain) was “induce superoxide production”. For the same molecule, the “superoxide levels in ΔcydB in response to treatment” value (soxS reporter strain; soxS reporter in ΔcydB) was “lower levels of superoxide”, the “physical changes of bacterial cells (TEM) at sublethal concentrations” value (E. coli [2]; 10 μM and 20 μM AgNO3) was “moderate morphological changes and protein aggregate formation” and the “physical changes of bacterial cells (TEM)” value (E. coli [2]; bactericidal concentrations (30 μM AgNO3)) was “protein aggregation and drastic morphological changes in the cell envelope”. For the same molecule, the “permeability (PI) of ΔdsbA strain versus treated wildtype” value (E. coli [3]) was “more permeable”, the “bactericidal activity against exponentially growing E. coli” value (E. coli [4]; 30 μM, wildtype) was “significant bactericidal activity” and the “phenotype of DsbC knockout under treatment” value (E. coli [4]; DsbC knockout, 30 μM AgNO3) was “phenotype similar to that exhibited by ΔdsbA”. The “reduction or inhibition of growth compared to untreated microbes” value (E. coli [4]; silver ions at about 30 μM, FIG. 1A) was “at least 30%”, the “sensitivity of ΔarcA strain compared to wildtype” value (E. coli [4]; ΔarcA knockout, 30 μM AgNO3) was “lower sensitivity” and the “sensitivity of ΔcpxA and ΔcpxR strains versus wildtype” value (E. coli [4]; ΔcpxA and ΔcpxR knockouts, 30 μM AgNO3) was “less sensitive”. For the same molecule, the “sensitivity of cytochrome bd knockout (ΔcydB) versus wildtype” value (E. coli [4]; 30 μM AgNO3) was “less sensitive”, the “sensitivity of cytochrome bd knockout (ΔcydB) versus wildtype” value (E. coli [4]; 30 μM AgNO3, listed as silver nitrate) was “considerably less sensitivity” and the “sensitivity of cytochrome bo knockout (ΔcyoA) versus wildtype” value (E. coli [4]; ΔcyoA knockout) was “greater sensitivity”. The “sensitivity of ΔdsbA strain versus treated wildtype” value (E. coli [4]; ΔdsbA knockout, 30 μM AgNO3) was “more sensitive”, the “sensitivity of TCA cycle gene knockout strains versus wildtype” value (E. coli [4]; ΔicdA, ΔsucB, Δmdh, ΔacnB, 30 μM AgNO3) was “less sensitive” and the “phenotype of ΔiscS strain under treatment” value (E. coli [4]; ΔiscS knockout, 30 μM AgNO3) was “bacteriostatic phenotype”. For the same molecule, the “susceptibility of ΔsecG strain compared to wildtype” value (E. coli [4]; ΔsecG knockout, 30 μM AgNO3) was “less susceptible”, the “effect on peritoneal E. Coli cell counts” value (E. Coli [5]) was “no effect” and the mice survived (E. Coli [6]) was 50%. For the same molecule, the “Fe+2 levels in treated lysate relative to untreated lysate” value [7] was “higher Fe^+2 levels”, the toxicity in mice (mice) was “no effect” and the “dps reporter GFP fluorescence on addition to H2O2 treatment” value (dps reporter strain; 30 μM AgNO3 added to 0.5 mM H2O2) was “reduced the fluorescence back to untreated levels”. The “HPF fluorescence (OH• production) compared to untreated cells” value (E. coli [8]; treated for one hour, 30 μM AgNO3, wildtype) was “detectable increases in fluorescence”, the “hydroxyl radical production in ΔarcA strain compared to wildtype” value (E. coli [8]; ΔarcA knockout, 1 h, 30 μM AgNO3) was “lower hydroxyl radical production” and the “hydroxyl radical production in ΔcpxA and ΔcpxR strains” value (E. coli [8]; ΔcpxA and ΔcpxR knockouts, 1 h, 30 μM AgNO3) was “lower levels of hydroxyl radical production”. The “OH• production in ΔiscS compared to wildtype cells” value (E. coli [8]; ΔiscS knockout, 1 h, 30 μM AgNO3) was “significantly lower OH• production”.
With OO [H2O2, reference compound] the “dps reporter GFP fluorescence relative to untreated cells” value (dps reporter strain; 0.5 mM H2O2 alone) was “significantly increased fluorescence”.
CC1(C)S[C@@H]2[C@H](NC(=O)[C@H](N)c3ccccc3)C(=O)N2[C@H]1C(=O)O [ampicillin, reference compound] was tested, and the “bactericidal activity when sublethal Ag+ is added to the antibiotic” value (E. coli [4]) was “significantly enhanced bactericidal activity”, the “ROS (OH•) production from sublethal antibiotic alone” value (E. coli [8]; 1 h) was “no detectable increases in ROS production” and the “ROS production when sublethal Ag+ is added to the antibiotic” value (E. coli [8]; 1 h) was “dramatic increases in ROS”.
In the case of CN[C@H](CC(C)C)C(=O)N[C@H]1C(=O)N[C@@H](CC(N)=O)C(=O)N[C@H]2C(=O)N[C@H]3C(=O)N[C@H](C(=O)N[C@H](C(=O)O)c4cc(O)cc(O)c4-c4cc3ccc4O)[C@H](O)c3ccc(c(Cl)c3)Oc3cc2cc(c3O[C@@H]2O[C@H](CO)[C@@H](O)[C@H](O)[C@H]2O[C@H]2C[C@](C)(N)[C@H](O)[C@H](C)O2)Oc2ccc(cc2Cl)[C@H]1O [vancomycin, reference compound], the “cell death with combination relative to Ag+ or vancomycin alone” value (E. coli [4]; 30 μg/mL vancomycin combined with 15, 20 or 30 μM AgNO3) is reported as “significantly higher levels of cell death”, the “growth of Gram-negative microbes (E. coli) under combination” value (E. coli [4]; vancomycin combined with silver nitrate, silver ions about 15 μM, FIG. 8D) is reported as “reduces the growth” and the “effect on peritoneal E. Coli cell counts” value (E. Coli [5]) is reported as “no effect”. It also gave a mice survived (E. Coli [6]) of 10%.
In the case of gentamicin [reference compound], the “bactericidal activity when sublethal Ag+ is added to the antibiotic” value (E. coli [4]) is reported as “significantly enhanced bactericidal activity”, the “ROS (OH•) production from sublethal antibiotic alone” value (E. coli [8]; 1 h) is reported as “no detectable increases in ROS production” and the “ROS production when sublethal Ag+ is added to the antibiotic” value (E. coli [8]; 1 h) is reported as “dramatic increases in ROS”.
